Laboratory results taken from ChEMBL document CHEMBL5233210, “Pyrazolone structural motif in medicinal chemistry: Retrospect and prospect” (Eur J Med Chem, 2020).
pEC50, pIC50, pKi: −log10 of the molar value. ≈ marks a conversion by molar mass, not a printed value.

Tests used:
Bacillus subtilis [1] = assay: Antibacterial activity against Bacillus subtilis; format: functional
Streptococcus pyogenes = assay: Antibacterial activity against Streptococcus pyogenes; format: functional
Pseudomonas aeruginosa [2] = assay: Antibacterial activity against Pseudomonas aeruginosa; format: functional
Escherichia coli [3] = assay: Antibacterial activity against Escherichia coli; format: functional
Geotrichum candidum = assay: Antifungal activity against Geotrichum candidum; format: functional
[4] = tested on: Mycobacterium tuberculosis; assay: Antibacterial activity against Mycobacterium tuberculosis; format: functional, organism-based
[5] = Selectivity index, ratio of CC50 african green monkey Vero cells to IC50 for Mycobacterium tuberculosis; format: toxicity; conditions: read-out: Ratio CC50/IC50
[6] = biological target: T1, Amine oxidase [flavin-containing] A (Homo sapiens, UniProt P21397); assay: Inhibition of human MAO-A
T1 sequence (P21397 whole entry): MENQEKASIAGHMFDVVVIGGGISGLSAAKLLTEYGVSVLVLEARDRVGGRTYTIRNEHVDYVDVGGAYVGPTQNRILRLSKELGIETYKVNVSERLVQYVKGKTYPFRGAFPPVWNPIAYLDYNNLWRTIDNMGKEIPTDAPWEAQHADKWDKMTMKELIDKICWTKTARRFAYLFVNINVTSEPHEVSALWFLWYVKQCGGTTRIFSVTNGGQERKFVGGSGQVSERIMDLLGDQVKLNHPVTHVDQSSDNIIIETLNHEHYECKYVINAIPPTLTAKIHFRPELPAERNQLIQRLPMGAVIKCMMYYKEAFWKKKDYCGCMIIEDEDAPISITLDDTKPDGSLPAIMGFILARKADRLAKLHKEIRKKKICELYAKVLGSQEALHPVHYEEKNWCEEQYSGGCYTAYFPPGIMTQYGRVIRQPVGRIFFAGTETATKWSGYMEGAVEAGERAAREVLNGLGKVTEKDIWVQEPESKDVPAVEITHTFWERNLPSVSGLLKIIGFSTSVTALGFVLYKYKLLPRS

[7] = biological target: T2, Amine oxidase [flavin-containing] B (Homo sapiens, UniProt P27338); assay: Inhibition of human MAO-B
T2 sequence (P27338 whole entry): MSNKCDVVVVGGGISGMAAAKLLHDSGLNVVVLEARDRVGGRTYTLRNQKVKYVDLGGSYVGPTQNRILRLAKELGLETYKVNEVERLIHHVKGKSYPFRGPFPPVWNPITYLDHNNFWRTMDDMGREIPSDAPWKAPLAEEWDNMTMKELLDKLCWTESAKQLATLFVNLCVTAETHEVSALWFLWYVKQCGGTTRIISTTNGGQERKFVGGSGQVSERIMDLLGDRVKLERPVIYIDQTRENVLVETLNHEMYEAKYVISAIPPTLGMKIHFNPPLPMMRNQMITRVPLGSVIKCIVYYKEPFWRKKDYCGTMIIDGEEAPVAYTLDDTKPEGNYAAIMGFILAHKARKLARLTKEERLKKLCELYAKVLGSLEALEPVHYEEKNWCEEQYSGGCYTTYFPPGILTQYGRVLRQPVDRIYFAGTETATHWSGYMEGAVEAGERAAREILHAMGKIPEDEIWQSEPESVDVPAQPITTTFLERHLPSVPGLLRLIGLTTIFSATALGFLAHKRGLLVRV

Homo sapiens = organism: Homo sapiens; assay: Selectivity index, ratio of Ki for human MAO-B to Ki for human MAO-A
[8] = biological target: Amine oxidase [flavin-containing] A (Rattus norvegicus, UniProt P21396); assay: Inhibition of rat brain synaptosome MAO-A; format: subcellular
Sequence of Amine oxidase [flavin-containing] A (Rattus norvegicus, UniProt P21396) (P21396 whole entry): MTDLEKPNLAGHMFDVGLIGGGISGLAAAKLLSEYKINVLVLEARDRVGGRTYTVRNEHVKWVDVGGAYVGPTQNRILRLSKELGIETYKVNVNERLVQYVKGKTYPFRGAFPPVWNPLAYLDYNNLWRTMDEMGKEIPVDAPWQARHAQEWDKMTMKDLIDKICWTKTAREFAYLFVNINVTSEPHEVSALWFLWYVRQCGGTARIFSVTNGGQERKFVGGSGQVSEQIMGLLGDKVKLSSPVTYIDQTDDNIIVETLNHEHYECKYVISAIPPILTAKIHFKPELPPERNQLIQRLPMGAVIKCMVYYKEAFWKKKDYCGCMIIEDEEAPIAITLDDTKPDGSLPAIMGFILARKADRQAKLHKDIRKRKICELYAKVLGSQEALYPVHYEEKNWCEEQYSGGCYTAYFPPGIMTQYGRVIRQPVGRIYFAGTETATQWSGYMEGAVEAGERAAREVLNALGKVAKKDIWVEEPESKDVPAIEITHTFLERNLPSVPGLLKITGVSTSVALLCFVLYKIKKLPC

[9] = biological target: Amine oxidase [flavin-containing] B (Rattus norvegicus, UniProt P19643); assay: Inhibition of rat brain synaptosome MAO-B; format: subcellular
Sequence of Amine oxidase [flavin-containing] B (Rattus norvegicus, UniProt P19643) (P19643 whole entry): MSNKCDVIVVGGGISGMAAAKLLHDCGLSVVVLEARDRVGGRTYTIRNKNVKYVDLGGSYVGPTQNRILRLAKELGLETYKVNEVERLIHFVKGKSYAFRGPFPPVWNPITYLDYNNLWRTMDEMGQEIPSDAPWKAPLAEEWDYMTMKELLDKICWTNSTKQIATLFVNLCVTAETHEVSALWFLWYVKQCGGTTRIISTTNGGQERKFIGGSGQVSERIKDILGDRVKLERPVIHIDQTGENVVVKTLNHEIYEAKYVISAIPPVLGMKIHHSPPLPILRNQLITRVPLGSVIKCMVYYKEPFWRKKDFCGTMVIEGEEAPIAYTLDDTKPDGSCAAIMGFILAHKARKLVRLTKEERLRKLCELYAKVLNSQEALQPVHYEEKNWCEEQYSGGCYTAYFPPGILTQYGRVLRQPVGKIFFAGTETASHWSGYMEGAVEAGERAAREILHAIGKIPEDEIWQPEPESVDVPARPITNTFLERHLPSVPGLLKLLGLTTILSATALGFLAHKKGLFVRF

Acetylcholinesterase = Acetylcholinesterase (Electrophorus electricus, UniProt O42275); assay: Inhibition of electric eel AChE
Sequence of Acetylcholinesterase (O42275 whole entry): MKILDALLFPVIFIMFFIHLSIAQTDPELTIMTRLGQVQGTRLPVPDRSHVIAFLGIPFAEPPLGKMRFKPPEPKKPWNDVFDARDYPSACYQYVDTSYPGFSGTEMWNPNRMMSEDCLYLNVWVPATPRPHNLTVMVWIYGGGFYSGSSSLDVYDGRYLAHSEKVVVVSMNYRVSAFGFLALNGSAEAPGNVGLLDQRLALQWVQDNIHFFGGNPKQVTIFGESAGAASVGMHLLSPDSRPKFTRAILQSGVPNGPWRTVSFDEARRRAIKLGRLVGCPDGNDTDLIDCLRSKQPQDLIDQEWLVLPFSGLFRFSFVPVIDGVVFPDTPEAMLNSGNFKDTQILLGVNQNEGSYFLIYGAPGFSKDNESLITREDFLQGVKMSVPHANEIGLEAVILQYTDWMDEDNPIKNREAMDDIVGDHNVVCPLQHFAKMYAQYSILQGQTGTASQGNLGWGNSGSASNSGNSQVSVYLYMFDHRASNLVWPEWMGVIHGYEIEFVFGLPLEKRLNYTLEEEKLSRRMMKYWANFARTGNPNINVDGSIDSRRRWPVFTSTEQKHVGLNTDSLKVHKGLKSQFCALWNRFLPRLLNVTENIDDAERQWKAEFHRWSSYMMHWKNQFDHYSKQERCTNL

[10] = biological target: Cholinesterase (Equus caballus) (UniProt P81908); assay: Inhibition of equine serum BChE at 10^-3 M relative to control; format: cell-free; conditions: dose 1.0 10^-3M
Sequence of Cholinesterase (Equus caballus) (P81908 whole entry): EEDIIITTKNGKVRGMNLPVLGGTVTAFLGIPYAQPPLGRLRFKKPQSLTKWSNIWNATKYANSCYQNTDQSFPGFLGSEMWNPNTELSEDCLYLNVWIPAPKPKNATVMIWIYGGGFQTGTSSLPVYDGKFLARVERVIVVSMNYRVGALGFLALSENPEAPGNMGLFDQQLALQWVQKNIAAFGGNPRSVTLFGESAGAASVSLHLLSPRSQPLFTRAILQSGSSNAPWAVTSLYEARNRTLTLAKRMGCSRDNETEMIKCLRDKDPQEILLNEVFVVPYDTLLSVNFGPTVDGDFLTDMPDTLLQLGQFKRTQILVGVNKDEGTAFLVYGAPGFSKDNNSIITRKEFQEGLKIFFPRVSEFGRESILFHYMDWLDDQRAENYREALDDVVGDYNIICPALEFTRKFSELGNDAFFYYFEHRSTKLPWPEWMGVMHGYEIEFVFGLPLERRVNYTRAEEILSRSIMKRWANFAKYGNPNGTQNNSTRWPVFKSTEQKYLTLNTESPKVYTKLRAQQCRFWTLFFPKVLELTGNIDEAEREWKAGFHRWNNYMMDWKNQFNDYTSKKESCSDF

[11] = biological target: T1, Amine oxidase [flavin-containing] A; assay: Inhibition of MAO-A (unknown origin) relative to control
Mus musculus [12] = organism: Mus musculus; assay: Antidepressant activity in Swiss albino mouse assessed as change in immobility by forced swim test; format: functional
Mus musculus [13] = organism: Mus musculus; assay: Antidepressant activity in Swiss albino mouse assessed as decrease in immobility time by forced swim test (reference value: 203.3 sec); format: functional
Mus musculus [14] = organism: Mus musculus; assay: Antidepressant activity in Swiss albino mouse assessed as decrease in immobility time by tail suspension test (reference value: 185.8 sec); format: functional
Mus musculus [15] = organism: Mus musculus; assay: Antidepressant activity in Swiss albino mouse assessed as change in immobility by tail suspension test; format: functional
HepG2 = assay: Cytotoxicity against human HepG2 cells; format: functional, cell-based
PC-3 = assay: Cytotoxicity against human PC-3 cells; format: functional, cell-based
Bacillus subtilis [16] = assay: Antibacterial activity against Bacillus subtilis assessed as diameter of inhibition zone at 100 ppm; format: functional; conditions: read-out: DIZ
Streptococcus mutans = assay: Antibacterial activity against Streptococcus mutans assessed as diameter of inhibition zone at 100 ppm; format: functional; conditions: read-out: DIZ
Micrococcus luteus = assay: Antibacterial activity against Micrococcus luteus assessed as diameter of inhibition zone at 100 ppm; format: functional; conditions: read-out: DIZ
Pseudomonas aeruginosa [17] = assay: Antibacterial activity against Pseudomonas aeruginosa assessed as diameter of inhibition zone at 100 ppm; format: functional; conditions: read-out: DIZ
Salmonella typhi = assay: Antibacterial activity against Salmonella typhi assessed as diameter of inhibition zone at 100 ppm; format: functional, Salmonella enterica subsp. enterica serovar Typhi; conditions: Salmonella enterica, read-out: DIZ
Salmonella paratyphi = assay: Antibacterial activity against Salmonella paratyphi assessed as diameter of inhibition zone at 100 ppm; format: functional, Salmonella enterica subsp. enterica serovar Paratyphi A; conditions: Salmonella enterica, read-out: DIZ
Candida albicans = assay: Antifungal activity against Candida albicans assessed as diameter of inhibition zone at 100 ppm; format: functional; conditions: read-out: DIZ
Trichoderma viride = assay: Antifungal activity against Trichoderma viride assessed as diameter of inhibition zone at 100 ppm; format: functional; conditions: read-out: DIZ
Escherichia coli [18] = assay: Antibacterial activity against Escherichia coli assessed as diameter of inhibition zone at 100 ppm; format: functional; conditions: read-out: DIZ
Aspergillus niger = assay: Antifungal activity against Aspergillus niger assessed as diameter of inhibition zone at 100 ppm; format: functional; conditions: read-out: DIZ
PC-12 [19] = assay: Anti amyotrophic lateral sclerosis activity in rat PC-12 cells assessed as decrease in G93A SOD1 aggregate formation; format: functional; conditions: read-out: ED50 (the source's name)
PC-12 [20] = assay: Cytotoxicity against rat PC-12 cells; format: functional; conditions: read-out: LD50 (the source's name)

Work on CC(=O)N1N=C(C)/C(=N/Nc2cc(Cl)cc(Cl)c2)C1=O yielded an MIC (Bacillus subtilis [1]) of no more than 12.5 µg/mL, an MIC (Streptococcus pyogenes) of no more than 12.5 µg/mL and an MIC (Pseudomonas aeruginosa [2]) of no more than 12.5 µg/mL. The MIC (Escherichia coli [3]) was greater than 200 µg/mL and the MIC (Geotrichum candidum) was greater than 200 µg/mL.
Work on O=C1CC(NC(=O)CN2CCNCC2)=NN1 yielded a pIC50 [4] greater than 6.36 and a selectivity ratio [5] of 631.
Compound O=C1CC(NC(=O)CNc2ccc(Cl)cc2)=NN1 has a pIC50 [4] greater than 6.43 and a selectivity ratio [5] of 633.
Compound Cc1c(C(=O)CC(C#N)C#N)c(=O)n(-c2ccccc2)n1C has a pKi [6] of 10.85, a pKi [7] of 6.92 and a Ratio Ki (Homo sapiens) of 8670. The pIC50 [8] was 5.63 and the pIC50 [9] was 6.88.
In the case of Cc1cccc(C)c1/C=N/c1c(C)n(C)n(-c2ccccc2)c1=O, the pIC50 (Acetylcholinesterase) was 7.24, the inhibition [10] was 96.3% and the “inhibition (INH)” value [11] was 42.3%.
CC1=NN(C(=O)c2ccc3ccccc3c2)C(=O)C1/N=N/c1ccc(C)cc1C (centres undefined) showed an Activity (Mus musculus [12]) of -36.3%, a Time (Mus musculus [13]) of 129.5 s and a Time (Mus musculus [14]) of 111 s. It also gave an Activity (Mus musculus [15]) of -40.2%.
Compound CC/C(=N/NC(=O)c1ccco1)c1c(C)nn(-c2ccccc2)c1O has an IC50 (HepG2) of 5.69 µg/mL (≈ 16.8 µM) and an IC50 (PC-3) of 6.8 µg/mL (≈ 20.1 µM).
Cc1[nH]n(-c2ccccc2)c(=O)c1C(c1ccc(Br)c(F)c1)c1c(O)ccc2ccccc12 (centres undefined) gave a zone of inhibition at 100 µg/mL (Bacillus subtilis [16]) of 19.5 mm, a zone of inhibition at 100 µg/mL (Streptococcus mutans) of 18 mm and a zone of inhibition at 100 µg/mL (Micrococcus luteus) of 16.5 mm. The zone of inhibition at 100 µg/mL (Pseudomonas aeruginosa [17]) was 14.5 mm, the zone of inhibition at 100 µg/mL (Salmonella typhi) was 20.5 mm and the zone of inhibition at 100 µg/mL (Salmonella paratyphi) was 19.5 mm. For the same compound, the zone of inhibition at 100 µg/mL (Candida albicans) was 18.5 mm and the zone of inhibition at 100 µg/mL (Trichoderma viride) was 10.5 mm.
In the case of Cc1[nH]n(-c2ccccc2)c(=O)c1C(c1ccc(Br)cc1)c1c(O)ccc2ccccc12 (centres undefined), the zone of inhibition at 100 µg/mL (Bacillus subtilis [16]) was 18.5 mm, the zone of inhibition at 100 µg/mL (Streptococcus mutans) was 29.5 mm and the zone of inhibition at 100 µg/mL (Micrococcus luteus) was 18.5 mm. For the same compound, the zone of inhibition at 100 µg/mL (Pseudomonas aeruginosa [17]) was 14.5 mm, the zone of inhibition at 100 µg/mL (Salmonella typhi) was 19.5 mm and the zone of inhibition at 100 µg/mL (Salmonella paratyphi) was 19.5 mm. For the same compound, the zone of inhibition at 100 µg/mL (Candida albicans) was 15.5 mm and the zone of inhibition at 100 µg/mL (Trichoderma viride) was 13.5 mm.
Cc1ccc(/N=N/c2c(N)n[nH]c2N)cc1 gave a zone of inhibition at 100 µg/mL (Escherichia coli [18]) of 23.1 mm, a zone of inhibition at 100 µg/mL (Bacillus subtilis [16]) of 25.3 mm and a zone of inhibition at 100 µg/mL (Pseudomonas aeruginosa [17]) of 19.3 mm. The zone of inhibition at 100 µg/mL (Aspergillus niger) was 25.5 mm.
For CN(C)CCCN1c2ccccc2CCc2ccccc21 [IMIPRAMINE], the Activity (Mus musculus [12]) was -53.8%, the Time (Mus musculus [13]) was 94 s and the Time (Mus musculus [14]) was 109 s. For the same compound, the Activity (Mus musculus [15]) was -41.3%.
For Cc1cc(SCc2cc(=O)[nH][nH]2)c(Cl)cc1Cl, the pEC50 (PC-12 [19]) was 6.40 and the CC50 (PC-12 [20]) was greater than 100000 nM.
